Experimental data as given in patent publication US3991187A, “Medicinal compositions and methods of use involving phosphoric acid esters” (Aktiebolaget Leo, priority 1971, dated 1976).
Where a name gives a salt, the structure may show the parent alone.

Columns and labels:
[1] = system: prostaglandins E1, E2 F1α and F2α; assay: PG-inhibitory effect on the isolated gerbil colon; assay type: cell-based, Gerbils (Meriones unguiculatus); settings: for selective inhibitory effects compared with PPP: gerbil colon; for concentration for 50 per cent reduction of the PG-induced contraction, as fraction of that of PPP: relative to PPP (10-75 μg/ml)
Description: The PG-inhibitory effect of esters of the present invention on the gerbil colon are determined using the general technique described by Eakins, Miller & Karim (J. Pharm. Exp. Ther. 176:441, 1971). Gerbils (Meriones unguiculatus) of own breed, both sexes, weighing 50-80 g are used. The animal is stunned, colon ascendens immediately removed, and a 2-3 cm piece mounted in a 6 ml bath containing a modified de Jalon solution at 28° C and continuously oxygenated. Contractions of the organ are registered either isotonically or isometrically. When testing the inhibitory effect of a compound this is added to the bath 2 min before the addition of prostaglandin. […] Several concentrations of each antagonist are used.

[2] = system: Slow Reacting Substance (SRS); assay: antagonism to Slow Reacting Substance on the isolated guinea-pig ileum (Mathe & Strandberg); assay type: cell-based
Description: The antagonism to Slow Reacting Substance (SRS) is determined on the isolated guinea-pig ileum as described by Mathe & Strandberg (Acta physiol. scand. 82:460, 1971). Purified SRS is obtained from cat paws perfused with compound 48/80 (Strandberg & Uvnas: Acta physiol. scand. 82:358, 1971). Sodium bis(4-(3-oxo-3-(2,4,6-trihydroxyphenyl)propyl)phenyl) phosphate was tested in this system in several concentrations.

[3] = system: gerbil colon; assay: smooth muscle stimulatory effect on the gerbil colon in vivo; set-up: species or system mongolian gerbils; settings: for contraction of the colon: i.v., same dose range (from 40 mg/kg)
Description: This example illustrates the smooth muscle stimulatory effect of esters of this invention on the gerbil colon in vivo.
The experiments are performed with mongolian gerbils, anesthetized with pentobarbital, 50 mg/kg. The ascending colon is exposed and carefully stretched between silk thread loops and a strain-gauge transducer.
After a stable base-line has been established an ester of this invention, sodium bis (4-(3-oxo-3-(2,4,6-trihydroxyphenyl)-propyl)phenyl) phosphate is infused i.v.
In doses from 40 mg/kg this treatment causes the gut to respond with a series of contractions.

[4] = system: PGE1; assay: prostaglandin-stimulated glycolysis of the prepubertal ovary (lactic acid production); assay type: cell-based, rats; settings: for prostaglandin inhibiting activity: compared with the compound giving 50% reduction at 50-100 μg/ml
Description: The action of esters of the present invention on the prostaglandin-stimulated glycolysis of the prepubertal ovary is investigated. The method used has been described in detail by Perklev & Ahren (Life Sciences Part I, 10:1387, 1971). In these experiments ovaries from prepubertal rats are removed and placed in Erlenmeyer flasks containing compounds of this invention dissolved in Krebs biocarbonate buffer. After that the ovaries have been preincubated during 60 min. at 37° C in this medium, they are blotted on filter paper and then washed for 2 min. in plain buffer. The ovaries are then transferred to a new incubation medium containing prostaglandins (PG) dissolved in Krebs bicarbonate buffer and incubated at 37° C for 2 hrs with continuous shaking. The ovarian glycolysis is then determined by measuring the concentration of lactic acid in the incubation medium. When polyphloretin phosphate (PPP) is present in the preincubation medium in a concentration of 500 μg/ml, the subsequent ovarian lactic acid production produced by PGE1 is reduced to about 50% of that obtained with ovaries preincubated in plain buffer. When sodium bis(4-(3-(2,4,6-trihydroxyphenyl)propyl)phenyl)phosphate is investigated in the same experimental system, a 50% reduction of the lactate production is seen when only 50-100 μg/ml of the compound is present in the preincubation medium.

[5] = system: acetylcholine, 5-HT and bradykinin; assay: selectivity of the antagonism: other agonists on the gerbil colon; assay type: cell-based, Gerbils (Meriones unguiculatus); settings: far higher concentrations than the prostaglandin-inhibitory ones
Source text: (§1) Results from these experiments give an approximate idea of the PG-inhibitory potency of the compounds. When more precise information about this is desired we use a more elaborate method involving the establishment of several PG dose-response curves in the presence of various concentrations of inhibitor. The method used is essentially the same as that described by Arunlakshana & Schild (Br. J. Pharm. 14:48, 1959). Other agonists, acetylcholine,5-HT and bradykinin, are included in these experiments in order to determine the selectivity of the antagonism.
(§2) In the quantitative assay it is confirmed that sodium bis(4-(3-oxo-3-(2,4,6-trihydroxyphenyl)propyl)phenyl)phosphate has a PG inhibition potency about 10 times that of PPP on a weight basis, and also the results with sodium bis (3,5-dihydroxy-4-(3-(4-hydroxyphenyl)propionyl)phenyl)phosphate are confirmed.

[6] = system: prostaglandins; assay: quantitative assay: PG dose-response curves in the presence of inhibitor (Arunlakshana & Schild), gerbil colon; assay type: cell-based, Gerbils (Meriones unguiculatus)
Source text: as §1, §2

[7] = system: bronchial smooth muscle; assay: isolated perfused guinea-pig lung preparation, bronchoconstriction; assay type: cell-based, guinea pigs
Source text: The effects of esters of the present invention on bronchial smooth muscle have been investigated using an isolated perfused guinea-pig lung preparation according to Bhattacharya & Delaunois (Arch. Int. Pharmacodyn. 101:495, 1955). The lungs from guinea pigs weighing 300-400 g are removed, and the trachea and A. pulmonalis cannulated. The arterial cannula is connected to a perfusion fluid reservoir containing Tyrode solution buffered with 10 % Sorensen phosphate buffer. The tracheal cannula is connected with tubing to a carbogen gas supply delivering a constant amount per time unit. The perfusion pressure is measured in a side arm of the tubing with a "Mercury" transducer connected to an Ultralette UV-recorder. The compounds are injected via the arterial cannula, close to the entrance of A. pulmonalis in the lung.

Q: With `O=C(CCc1ccc(OP(=O)([O-])Oc2ccc(CCC(=O)c3ccc(O)cc3O)cc2)cc1)c1ccc(O)cc1O.[Na+]` [Sodium bis(4-(3-(2,4-dihydroxyphenyl)-3-oxopropyl)phenyl) phosphate] as the compound, how does the “selective inhibitory effects compared with PPP” value [1] read?
A: equal to or superior to that of PPP

Q: What about the “inhibition of SRS” value [2] of the same compound?
A: inhibit SRS

Q: And the “contraction of the colon” value [3]?
A: give contraction in the same dose range

Q: What about the “prostaglandin inhibiting activity” value [4] of the same compound?
A: same order

Q: What does the source list for `O=C(CCc1ccc(O)cc1)c1c(O)cc(OP(=O)(O)Oc2cc(O)c(C(=O)CCc3ccc(O)cc3)c(O)c2)cc1O` [sodium bis(3,5-dihydroxy-4-(3-(4-hydroxyphenyl)propionyl)phenyl phosphate]?
A: concentration for 50 per cent reduction of the PG-induced contraction, as fraction of that of PPP [1]: one fourth; influence on the contractions elicited by acetylcholine, 5-HT or bradykinin [5]: no influence; results of the approximate assay (one fourth of the PPP concentration) in the quantitative assay [6]: confirmed; inhibition of SRS [2]: inhibit SRS; contraction of the colon [3]: give contraction in the same dose range; prostaglandin inhibiting activity [4]: same order

Q: How did the “concentration for 50 per cent reduction of the PG-induced contraction, as fraction of that of PPP” value [1] turn out when `O=C(CCc1ccc(OP(=O)([O-])Oc2ccc(CCC(=O)c3c(O)cc(O)cc3O)cc2)cc1)c1c(O)cc(O)cc1O.[Na+]` [sodium bis(4-(3-oxo-3-(2,4,6-trihydroxyphenyl)-propyl)phenyl) phosphate] was run?
A: about one tenth

Q: And the “influence on the contractions elicited by acetylcholine, 5-HT or bradykinin” value [5]?
A: no influence

Q: What about the “PG inhibition potency relative to PPP” value ([6]; on a weight basis) of the same compound?
A: about 10 times

Q: What about the minimal effective concentration ([2]; Cavia porcellus, concentrations as low as, read-out: concentration that inhibits contractions produced by SRS) of the same compound?
A: ≥ 5 µg/mL

Q: What about the “manner of inhibition of SRS” value ([2]; parallel shift of the dose-response curves, no change in maximum contraction) of the same compound?
A: competitive manner

Q: And the minimal effective dose ([3]; Meriones unguiculatus, iv, infused i.v., gerbils anesthetized with pentobarbital, ascending colon, read-out: dose causing the gut to respond with a series of contractions)?
A: ≥ 40 mg/kg

Q: What about the “activity as a prostaglandin inhibitor relative to PPP” value [4] of the same compound?
A: 5-10 times

Q: And the IC50 ([4]; Rattus norvegicus, preincubation 60 min at 37° C, read-out: concentration in the preincubation medium giving a 50% reduction of the lactate production)?
A: 50 to 100 µg/mL

Q: And the “dose showing a bronchoconstricting effect” value ([7]; injected via the arterial cannula, about 0.5 mg and upwards)?
A: ≥ 0.5 mg

Q: Which results are given for `O=P(O)(Oc1ccccc1)Oc1ccccc1` [sodium salt of diphenyl phosphate, sodium diphenyl phosphates, reference compound]?
A: effect on PG-induced contraction ([1]; concentrations 10 times as high as that of PPP): without effect; inhibition of SRS [2]: without effect; effect on the colon ([3]; doses up to 400 mg/kg): no effects at all; bronchoconstricting effect ([7]; dose 12.8 mg): completely lacked such an effect

Q: `O=C([O-])COc1cccc(C(=O)CCc2ccc(OP(=O)([O-])Oc3ccc(CCC(=O)c4cccc(OCC(=O)[O-])c4)cc3)cc2)c1.[Na+].[Na+].[Na+]` [trisodium bis(4-(3-(3-(carboxylatomethoxy)phenyl)-3-oxopropyl)-phenyl) phosphate] was tested. Which “selective inhibitory effects compared with PPP” value [1] did it give?
A: equal to or superior to that of PPP

Q: What about the “inhibition of SRS” value [2] of the same compound?
A: inhibit SRS

Q: What about the “prostaglandin inhibiting activity” value [4] of the same compound?
A: same order

Q: What does the source list for `COc1ccc(C(=Cc2ccc(C(=O)[O-])cc2)C(=O)c2ccc(OP(=O)([O-])Oc3ccc(C(=O)C(=Cc4ccc(C(=O)[O-])cc4)c4ccc(OC)cc4)c(OC)c3)cc2OC)cc1.[Na+].[Na+].[Na+]` [trisodium bis(4-(3-(4-carboxylatophenyl)-2-(4-methoxy-phenyl)-acryloyl)-3-methoxyphenyl) phosphate]?
A: selective inhibitory effects compared with PPP [1]: equal to or superior to that of PPP; inhibition of SRS [2]: inhibit SRS; prostaglandin inhibiting activity [4]: same order
